The values below come from patent US11820764B2, “Compound modulating GSK-3 activity” (National Institute of Immunology, priority 2020, dated 2023).

Data set [1] can be described thus: Pharmacokinetics in rats, plasma HPLC. It counts as in vivo. To be noted: both sexes, rat, 15 ug/kg. The method, then: The rats were randomly divided into two groups (I and II) in half respectively male and female. A dose of 15 μg/kg of Compound Y was administered to group I and II. Serial blood samples (0.5 mL) were collected into heparinized tubes from the retro-orbital region at 1, 2, 4, 6, 12, 24, 36, 48, and 72 h. Samples were immediately centrifuged at 12,000 rpm for 10 min and stored at −20° C. until analysis. Plasma was processed for HPLC analysis. 100 μl Acetonitrile was added in 100 μl plasma (1:1) and centrifuge at 12,000 for 5 minute. Supernatant transferred in a clean tube. Dried under Nitrogen gas 200 μl Acetonitrile: water (1:1) was added in dry tube and centrifuge at 12,000 rpm for 15 minute. Filtered with 0.2 μm membrane filter. 20 μl samples were used for analysis in HPLC. […] (FIG. 5)

Data set [2] can be described thus: Blood brain barrier crossing, mass spectrometry of cerebrospinal fluid of treated mice. It counts as in vivo. To be noted: CSF of treated animals.

For orientation: Cmax means the highest concentration seen after dosing. In general, Tmax refers to the time at which the peak concentration occurs. Regarding `O=C(O)CCCCCN1C(=O)/C(=C/c2c[nH]c3ccccc23)SC1=S` [SG001], in data set [1], the Cmax was 27 nM and the Tmax was 48 h. Moreover, the “crossing of blood brain barrier (detection in CSF)” value in data set [2] was “able to cross the blood brain barrier”.
